Source: article PMC8887546, “Design and Synthesis of Brain Penetrant Glycopeptide Analogues of PACAP With Neuroprotective Potential for Traumatic Brain Injury and Parkinsonism” (Frontiers in drug discovery, 2022)

Tests used:
Type in all cases: cell-based
[1] = target: T1, human VPAC2 receptor (Homo sapiens, UniProt P41587); test: cAMP stimulation in CHO cells expressing VPAC2; conditions: for Emax: CHO; for Receptor selectivity ratio VPAC2/PAC1 / Receptor selectivity ratio VPAC2/VPAC1: ratio of cAMP EC50 values
T1 construct: expressed in transfected cells; host or cells: CHO cells (G418 selection)
T1 sequence (P41587 24-438): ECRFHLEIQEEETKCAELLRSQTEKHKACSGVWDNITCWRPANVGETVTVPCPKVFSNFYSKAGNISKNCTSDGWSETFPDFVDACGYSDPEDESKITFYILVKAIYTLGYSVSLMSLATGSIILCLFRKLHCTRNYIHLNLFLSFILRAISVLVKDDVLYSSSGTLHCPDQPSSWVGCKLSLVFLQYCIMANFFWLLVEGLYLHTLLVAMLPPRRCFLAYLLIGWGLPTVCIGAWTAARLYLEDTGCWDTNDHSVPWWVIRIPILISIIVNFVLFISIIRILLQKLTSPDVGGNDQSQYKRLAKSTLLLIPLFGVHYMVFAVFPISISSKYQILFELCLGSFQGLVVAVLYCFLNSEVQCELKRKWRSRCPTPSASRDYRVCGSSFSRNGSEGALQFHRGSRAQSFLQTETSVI
Experimental: Briefly, human PAC1, VPAC1, and VPAC2 receptors expressed in CHO cells were used for all experiments. Cells were grown in 50:50 DMEM-F12 medium with 10% heat-inactivated fetal bovine serum, 1X penicillin-streptomycin supplement, and 500 μg/ml G418 (neomycin) to maintain selection (all from ThermoFisher) at 37°C with 5% CO2 atmosphere. For the cAMP assay, cells were seeded at 20,000 cells/well in a 96 well plate, recovered overnight, then serum starved for 4 h. The cells were then incubated with 500 μM IBMX for 20 min, followed by agonist concentration curves in 500 μM IBMX media for 10 min. The reaction was terminated, boiled, then collected, followed by competition with 7 μg of bovine protein kinase A (Sigma-Aldrich) and ∼1 pmol of ^3H-cAMP (PerkinElmer). The assay was incubated at room temp for 1 h, then collected onto GF/B filter plates and the data read using a MicroBeta2 scintillation counter (PerkinElmer).

[2] = target: T2, human PAC1 receptor (Homo sapiens, UniProt P41586); test: cAMP stimulation in CHO cells expressing PAC1; conditions: for Emax: CHO
T2 construct: expressed in transfected cells; host or cells: CHO cells (G418 selection)
T2 sequence (P41586 21-468): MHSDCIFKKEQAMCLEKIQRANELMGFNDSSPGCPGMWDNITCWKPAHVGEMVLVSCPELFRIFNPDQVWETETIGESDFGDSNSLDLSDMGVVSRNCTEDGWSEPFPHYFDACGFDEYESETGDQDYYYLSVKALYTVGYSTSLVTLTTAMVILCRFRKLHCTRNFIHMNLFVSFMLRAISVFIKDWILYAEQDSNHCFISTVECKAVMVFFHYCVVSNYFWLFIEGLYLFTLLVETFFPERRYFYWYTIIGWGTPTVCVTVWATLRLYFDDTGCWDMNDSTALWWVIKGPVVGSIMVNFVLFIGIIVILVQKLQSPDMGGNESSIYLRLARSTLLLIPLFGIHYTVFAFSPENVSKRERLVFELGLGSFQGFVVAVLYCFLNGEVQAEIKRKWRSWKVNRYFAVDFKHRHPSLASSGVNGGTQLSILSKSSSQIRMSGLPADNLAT
Procedure, shortened: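 Serum-starved CHO cells expressing human receptors were pre-treated 20 min with 500 μM IBMX, then exposed to agonist concentration curves for 10 min in 500 μM IBMX. cAMP quantified by competition with bovine PKA and ^3H-cAMP (1 h, room temperature), scintillation read.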

[3] = target: T3, human VPAC1 receptor (Homo sapiens, UniProt P32241); test: cAMP stimulation in CHO cells expressing VPAC1; conditions: for Emax: CHO, read-out: VPAC1 Emax; for Receptor selectivity ratio VPAC1/PAC1: ratio of cAMP EC50 values; for EC50: read-out: VPAC1 EC50
T3 construct: expressed in transfected cells; host or cells: CHO cells (G418 selection)
T3 sequence (P32241 31-457): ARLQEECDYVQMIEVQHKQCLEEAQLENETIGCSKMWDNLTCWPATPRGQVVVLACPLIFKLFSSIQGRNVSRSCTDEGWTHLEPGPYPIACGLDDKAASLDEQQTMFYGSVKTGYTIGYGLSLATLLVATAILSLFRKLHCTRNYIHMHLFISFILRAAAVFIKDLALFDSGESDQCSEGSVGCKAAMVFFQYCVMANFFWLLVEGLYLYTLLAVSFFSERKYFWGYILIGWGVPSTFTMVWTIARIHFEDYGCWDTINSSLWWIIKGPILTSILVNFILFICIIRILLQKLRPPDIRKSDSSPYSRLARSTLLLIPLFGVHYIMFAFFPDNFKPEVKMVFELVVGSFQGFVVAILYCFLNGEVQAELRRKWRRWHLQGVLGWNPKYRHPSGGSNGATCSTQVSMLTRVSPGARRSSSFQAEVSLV

Row | EC50 [1] [nM] | Emax [1] [%] | Receptor selectivity ratio VPAC2/PAC1 [1] | Receptor selectivity ratio VPAC2/VPAC1 [1] | EC50 [2] [nM] | Emax [2] [%] | Emax [3] [%] | Receptor selectivity ratio VPAC1/PAC1 [3] | EC50 [3] [nM] | Compound
1 | 1330 | 107 | 16.30 | 6.22 | 81.7 | 80 | 118 | 2.62 | 214 | CCC[C@H](NC(=O)[C@H](CCC(N)=O)NC(=O)[C@H](CCCCN)NC(=O)[C@H](CCCNC(=N)N)NC(=O)[C@H](Cc1ccc(O)cc1)NC(=O)[C@H](CCCNC(=N)N)NC(=O)[C@H](CO)NC(=O)[C@H](Cc1ccc(O)cc1)NC(=O)[C@H](CO)NC(=O)[C@H](CC(=O)O)NC(=O)[C@@H](NC(=O)[C@H](Cc1ccccc1)NC(=O)[C@@H](NC(=O)CNC(=O)[C@H](CC(=O)O)NC(=O)[C@@H](CO)NC(=O)[C@@H](N)Cc1c[nH]cn1)C(C)C)[C@@H](C)O)C(=O)N[C@@H](C)C(=O)N[C@H](C(=O)N[C@@H](CCCCN)C(=O)N[C@@H](CCCCN)C(=O)N[C@@H](Cc1ccc(O)cc1)C(=O)N[C@@H](CC(C)C)C(=O)N[C@@H](C)C(=O)N[C@@H](C)C(=O)N[C@H](C(=O)N[C@@H](CC(C)C)C(=O)N[C@@H](CO[C@@H]1O[C@H](CO)[C@@H](O)[C@H](O)[C@H]1O)C(N)=O)C(C)C)C(C)C [CRA 3012]
2 | 866 | 92 | 1.93 | 7.22 | 448 | 72 | 104 | 0.27 | 120 | CCC[C@H](NC(=O)[C@H](CCC(N)=O)NC(=O)[C@H](CCCCN)NC(=O)[C@H](CCCNC(=N)N)NC(=O)[C@H](Cc1ccc(O)cc1)NC(=O)[C@H](CCCNC(=N)N)NC(=O)[C@H](CO)NC(=O)[C@H](Cc1ccc(O)cc1)NC(=O)[C@H](CO)NC(=O)[C@H](CC(=O)O)NC(=O)[C@@H](NC(=O)[C@H](Cc1ccccc1)NC(=O)[C@@H](NC(=O)CNC(=O)[C@H](CC(=O)O)NC(=O)[C@@H](CO)NC(=O)[C@@H](N)Cc1c[nH]cn1)C(C)(C)C)[C@@H](C)O)C(=O)N[C@@H](C)C(=O)N[C@H](C(=O)N[C@@H](CCCCN)C(=O)N[C@@H](CCCCN)C(=O)N[C@@H](Cc1ccc(O)cc1)C(=O)N[C@@H](CC(C)C)C(=O)N[C@@H](C)C(=O)N[C@@H](C)C(=O)N[C@H](C(=O)N[C@@H](CC(C)C)C(=O)N[C@@H](CO[C@@H]1O[C@H](CO)[C@@H](O)[C@H](O)[C@H]1O)C(N)=O)C(C)C)C(C)C [CRA3015]
3 | 189 | 109 | 17.83 | 39.38 | 10.6 | 95 | 94 | 0.45 | 4.8 | CCCC[C@H](NC(=O)CNC(=O)[C@H](CC(=O)O)NC(=O)[C@@H](CO)NC(=O)[C@@H](N)Cc1c[nH]cn1)C(=O)N[C@@H](Cc1ccccc1)C(=O)N[C@H](C(=O)N[C@@H](CC(=O)O)C(=O)N[C@@H](CO)C(=O)N[C@@H](Cc1ccc(O)cc1)C(=O)N[C@@H](CO)C(=O)N[C@@H](CCCNC(=N)N)C(=O)N[C@@H](Cc1ccc(O)cc1)C(=O)N[C@@H](CCCNC(=N)N)C(=O)N[C@@H](CCCCN)C(=O)N[C@@H](CCC(N)=O)C(=O)N[C@@H](CCC)C(=O)N[C@@H](C)C(=O)N[C@H](C(=O)N[C@@H](CCCCN)C(=O)N[C@@H](CCCCN)C(=O)N[C@@H](Cc1ccc(O)cc1)C(=O)N[C@@H](CC(C)C)C(=O)N[C@@H](C)C(=O)N[C@@H](C)C(=O)N[C@H](C(=O)N[C@@H](CC(C)C)C(=O)N[C@@H](CO[C@@H]1O[C@H](CO)[C@@H](O)[C@H](O)[C@H]1O)C(N)=O)C(C)C)C(C)C)[C@@H](C)O [CRA3017]
4 | – | 93 | – | – | – | 96 | 111 | – | – | CCC[C@H](NC(=O)[C@H](CCC(N)=O)NC(=O)[C@H](CCCCN)NC(=O)[C@H](CCCNC(=N)N)NC(=O)[C@H](Cc1ccc(O)cc1)NC(=O)[C@H](CCCNC(=N)N)NC(=O)[C@H](CO)NC(=O)[C@H](Cc1ccc(O)cc1)NC(=O)[C@H](CO)NC(=O)[C@H](CC(=O)O)NC(=O)[C@@H](NC(=O)[C@H](Cc1ccccc1)NC(=O)[C@@H](NC(=O)[C@@H](C)NC(=O)[C@H](CC(=O)O)NC(=O)[C@@H](CO)NC(=O)[C@H](Cc1c[nH]cn1)NC(C)=O)[C@@H](C)CC)[C@@H](C)O)C(=O)N[C@@H](C)C(=O)N[C@H](C(=O)N[C@@H](CCCCN)C(=O)N[C@@H](CCCCN)C(=O)N[C@@H](Cc1ccc(O)cc1)C(=O)N[C@@H](CC(C)C)C(=O)N[C@@H](C)C(=O)N[C@@H](C)C(=O)N[C@H](C(=O)N[C@@H](CC(C)C)C(=O)N[C@@H](CO[C@@H]1O[C@H](CO)[C@@H](O)[C@H](O)[C@H]1O)C(N)=O)C(C)C)C(C)C [Ac-CRA3021]
5 | > 2500 | 31 | – | – | > 2500 | 35 | 36 | – | 415 | CCCC[C@H](NC(=O)CN(C)C(=O)[C@H](CC(=O)O)NC(=O)[C@@H](CO)NC(=O)[C@H](Cc1c[nH]cn1)NC(C)=O)C(=O)N[C@@H](Cc1ccccc1)C(=O)N[C@H](C(=O)N[C@@H](CC(=O)O)C(=O)N[C@@H](CO)C(=O)N[C@@H](Cc1ccc(O)cc1)C(=O)N[C@@H](CO)C(=O)N[C@@H](CCCNC(=N)N)C(=O)N[C@@H](Cc1ccc(O)cc1)C(=O)N[C@@H](CCCNC(=N)N)C(=O)N[C@@H](CCCCN)C(=O)N[C@@H](CCC(N)=O)C(=O)N[C@@H](CCC)C(=O)N[C@@H](C)C(=O)N[C@H](C(=O)N[C@@H](CCCCN)C(=O)N[C@@H](CCCCN)C(=O)N[C@@H](Cc1ccc(O)cc1)C(=O)N[C@@H](CC(C)C)C(=O)N[C@@H](C)C(=O)N[C@@H](C)C(=O)N[C@H](C(=O)N[C@@H](CC(C)C)C(=O)N[C@@H](CO[C@@H]1O[C@H](CO)[C@@H](O)[C@H](O)[C@H]1O)C(N)=O)C(C)C)C(C)C)[C@@H](C)O [Ac-CRA 3018]
6 | 27.2 | 101 | 9.71 | 12.36 | 2.8 | 96 | 98 | 0.79 | 2.2 | CC[C@H](C)[C@H](NC(=O)CNC(=O)[C@H](CC(=O)O)NC(=O)[C@H](CO)NC(=O)[C@H](Cc1c[nH]cn1)NC(C)=O)C(=O)N[C@@H](Cc1ccccc1)C(=O)N[C@H](C(=O)N[C@@H](CC(=O)O)C(=O)N[C@@H](CO)C(=O)N[C@@H](Cc1ccc(O)cc1)C(=O)N[C@@H](CO)C(=O)N[C@@H](CCCNC(=N)N)C(=O)N[C@@H](Cc1ccc(O)cc1)C(=O)N[C@@H](CCCNC(=N)N)C(=O)N[C@@H](CCCCN)C(=O)N[C@@H](CCC(N)=O)C(=O)N[C@@H](CC(C)C)C(=O)N[C@@H](C)C(=O)N[C@H](C(=O)N[C@@H](CCCCN)C(=O)N[C@@H](CCCCN)C(=O)N[C@@H](Cc1ccc(O)cc1)C(=O)N[C@@H](CC(C)C)C(=O)N[C@@H](C)C(=O)N[C@@H](C)C(=O)N[C@H](C(=O)N[C@@H](CC(C)C)C(=O)N[C@@H](CO[C@@H]1O[C@H](CO)[C@@H](O[C@@H]2O[C@H](CO)[C@H](O)[C@H](O)[C@H]2O)[C@H](O)[C@H]1O)C(N)=O)C(C)C)C(C)C)[C@@H](C)O [Ac-2LS132]
